Measured values: US9232792B2, “Method for promoting plant growth” (SUMITOMO CHEMICAL COMPANY, LIMITED, priority 2011, dated 2016)

What was measured:
Type in all cases: in vivo
[1] = system: Rice (cultivar: Nipponbare); assay: Test Example 1: promotion of root growth in hydroponics of rice; conditions: 1 ppm in hydroponic solution; 3 days germination + 3 days cultivation
Experimental: (§1) Rice (cultivar: Nipponbare)
(§2) DMSO solutions containing each of the present compounds 1 to 3 at 10,000 ppm were prepared. A 1/10,000 volume of each DMSO solution containing each of the present compounds 1 to 3 at 10,000 ppm was added to a Hoagland solution for hydroponics at ¼ concentration (Hoagland and Arnon, California Agricultural Experiment Station 1950 Circular 347 pp. 34) to obtain a solution for hydroponics containing each of the present compounds 1 to 3 at 1 ppm. These solutions were used in the treated-group.
(§3) In a non-treated group, a solution for hydroponics obtained by adding a Hoagland solution for hydroponics at ¼ concentration to a 1/10,000 volume of DMSO was used.
(§4) The rice seeds were immersed in an aqueous solution of 1% sodium hypochlorite for 10 minutes, followed by 70% ethanol solution to sterilize their surfaces. After that, the seeds were washed with distilled water. The sterilized seeds were immersed in each solution for hydroponics containing the test compound at the given concentration, and incubated at a temperature of 28° C. for 3 days under dark conditions to stimulate the germination of the seeds.
(§5) Then, 30 ml of each solution for hydroponics containing the test compound at the given concentration was dispensed into a plastic tube (20 mm in diameter×113 mm in height) covered with a cardboard on the lateral surface for blocking a light. A float made of a styrene board and a vinyl mesh was placed on the water surface of each solution for hydroponics, and the rice seeds obtained after the stimulation of germination were placed on the float. The seeds were cultivated for 3 days under the conditions of an illuminance of 4,000 lux at the top of the tube, a temperature of 26° C., a humidity of 50%, and a day length of 16 hours.
The root length of the rice seedlings obtained after the cultivation was measured by using WinRHIZO system (manufactured by REGENT INSTRUMENTS). The average value of the root length in the treated group was calculated from the measurement values of 4 or 5 individuals. […]

[2] = system: Tobacco (Nicotiana benthamiana); assay: Test Example 4: reduction of low-temperature stress in hydroponics of tobacco; conditions: 10 ppm in medium; 1.5±1.0° C. for 7 days, then 3 days at 22° C.
Experimental: Tobacco (Nicotiana benthamiana)
DMSO solutions containing each of the present compounds 1 to 4 at a concentration of 10,000 ppm were prepared. A 1/1,000 volume of each DMSO solution was added to a Murashige-and-Skoog medium (a medium containing 2.3 g of a mixture of salts for Murashige-and-Skoog medium (manufactured by Wako. Pure Chemical Industries, Ltd.), 200 mg of myoinositol (manufactured by Sigma-Aldrich), 2 mg of nicotinic acid (manufactured by Wako Pure Chemical Industries, Ltd.), 2 mg of pyridoxine hydrochloride (manufactured by Wako Pure Chemical Industries, Ltd.), 20 mg of thiamine hydrochloride (manufactured by Wako Pure Chemical Industries, Ltd.), 20 g of sucrose (manufactured by Wako Pure Chemical Industries, Ltd.), 1 g of MES (manufactured by DOJINDO LABORATORIES) in 1 L of water, adjusted to pH 5.8) at ½ concentration to obtain a medium containing the test compound at a concentration of 10 ppm. These media were used in the treated-group.
In a non-treated group, a medium obtained by adding a 1/1,000 volume of DMSO to a Murashige-and-Skoog medium at ½ concentration was used.
The seeds of tobacco (Nicotiana benthamiana) were sown on 5 μL of the medium, and incubated at 22° C. overnight. Thereto was added 45 μL of a medium containing each present compound at a concentration of 10 ppm, and cultivated for 7 days under the conditions of an illuminance of 4,000 lux, a temperature of 22° C. and a day length of 16 hours, thereby treating the seedlings of tobacco (Nicotiana benthamiana) with the test compound.
In the non-treated group, 45 μL of a medium obtained by adding a 1/1,000 volume of DMSO to a Murashige-and-Skoog medium at ½ concentration was added, and treated in the same manner as above.
The seedlings of tobacco (Nicotiana benthamiana) treated with the present compounds were cultivated for 7 days under the conditions of an illuminance of 2,000 lux, a temperature of 1.5±1.0° C., and a day length of 16 hours, thereby subjecting to low-temperature stress treatment.
The plants of tobacco (Nicotiana benthamiana) subjected to low-temperature stress treatment was cultivated for 3 days under the conditions of an illuminance of 4,000 lux, a temperature of 22° C., and a day length of 16 hours, and then the green leaf area of the plants was visually evaluated. Completely dead plant was scored as 0, the plant without low-temperature stress treatment was scored as 5, the green area was rated on a 6-point scale in ⅕ increments, and the score of not less than 1 was regarded as effective in reducing the stress. As a result of visual evaluation, the green leaf area of plants in the treated group, wherein the plants were treated with the present compound 1, 2, 3 or 4 was much larger than that in the non-treated group.

[3] = system: Rice (cultivar: Nipponbare); assay: Test Example 3: promotion of root growth in hydroponics of rice; conditions: 1 ppm in hydroponic solution; 3 days germination + 3 days cultivation
Experimental: as §1
as §2, with “compounds 4” for “compounds 1”, “to 8” for “to 3”
as §3, §4, §5
The root length of the rice seedlings obtained after the cultivation was measured by using WinRHIZO system (manufactured by REGENT INSTRUMENTS). The average value of the root length in the treated group was calculated from the measurement values of 4 or 5 individuals. As a result, the root length in the treated group, wherein the plants were treated with the present compound 4, 5, 6, 7 or 8 (at a concentration of 1 ppm in each case), was much longer than that in the non-treated group.

Compound | root length of the rice seedlings vs non-treated group [1] | green leaf area of plants (visual evaluation) vs non-treated group [2] | root length of the rice seedlings vs non-treated group [3]
O=C(O)c1cc2c(C(F)(F)F)cccc2s1 [The present compound 3, 4-(trifluoromethyl)benzo[b]thiophene-2-carboxylic acid] | much longer | much larger | –
O=C(O)c1cc2ccc(C(F)(F)F)cc2s1 [The present compound 2, 6-(trifluoromethyl)benzo[b]thiophene-2-carboxylic acid] | much longer | much larger | –
O=C(O)c1cc2cccc(C(F)(F)F)c2s1 [The present compound 4, 7-(trifluoromethyl)benzo[b]thiophene-2-carboxylic acid] | – | much larger | much longer
laurylammonium 5-(trifluoromethyl)benzo[b]thiophene-2-carboxylate [The present compound 8] | – | – | much longer
CC(C)N.O=C(O)c1cc2cc(C(F)(F)F)ccc2s1 [The present compound 7, isopropylammonium 5-(trifluoromethyl)benzo[b]thiophene-2-carboxylate] | – | – | much longer
O=C([O-])c1cc2cc(C(F)(F)F)ccc2s1.[K+] [The present compound 6, potassium 5-(trifluoromethyl)benzo[b]thiophene-2-carboxylate] | – | – | much longer
O=C([O-])c1cc2cc(C(F)(F)F)ccc2s1.[Na+] [The present compound 5, sodium 5-(trifluoromethyl)benzo[b]thiophene-2-carboxylate] | – | – | much longer
